Laboratory results published in ChEMBL document CHEMBL4828764, “Lead Optimization and Structure-Activity Relationship Studies on Myeloid Ecotropic Viral Integration Site 1 Inhibitor” (J Med Chem, 2021).
Calls of active or inactive are those of the source. The calls are words filed in the database; no cut-off is given here.

What was measured:
Assay type in all cases: cell-based
[1] = biological target: T1, Homeobox protein Meis1 (Homo sapiens) (UniProt O00470); test: Inhibition of MEIS1 (unknown origin) expressed in HEK293T cells co-expressing MEIS-Luc-pGL2 assessed as luciferase activity at 10 uM incubated for 48 hrs by luciferase reporter assay related to protein content; design: scale not given: the % may be the effect or the level left
T1 sequence (whole entry): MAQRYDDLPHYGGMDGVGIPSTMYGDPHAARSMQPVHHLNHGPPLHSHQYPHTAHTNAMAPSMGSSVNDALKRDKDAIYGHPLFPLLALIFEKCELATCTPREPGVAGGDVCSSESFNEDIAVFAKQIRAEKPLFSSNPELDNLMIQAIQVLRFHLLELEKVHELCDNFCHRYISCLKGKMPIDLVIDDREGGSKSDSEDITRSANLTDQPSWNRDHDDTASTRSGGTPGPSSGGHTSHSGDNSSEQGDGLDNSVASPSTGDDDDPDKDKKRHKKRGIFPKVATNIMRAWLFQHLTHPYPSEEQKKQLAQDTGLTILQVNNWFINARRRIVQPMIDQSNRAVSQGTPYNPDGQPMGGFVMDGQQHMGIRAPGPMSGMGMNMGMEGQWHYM

[2] = biological target: T1, Homeobox protein Meis1 (Homo sapiens); test: Inhibition of MEIS1 (unknown origin) expressed in HEK293T cells co-expressing MEIS-Luc-pGL2 assessed as luciferase activity at 10 uM incubated for 48 hrs by luciferase reporter assay related to […] control; design: scale not given: the % may be the effect or the level left
[3] = Cytotoxicity against HDF assessed as cell viability at 10 uM incubated for 72 hrs by MTS assay; settings: human, HDF (NHDF) cells, read-out: Activity
[4] = biological target: T1, Homeobox protein Meis1 (Homo sapiens); test: Inhibition of MEIS1 (unknown origin) expressed in HEK293T cells co-expressing MEIS-Luc-pGL2 assessed as downregulation of Meis1 gene expression measuring mRNA level at 10 uM incubated for 2 days by RT-qPCR analysis; design: scale not given: the % may be the effect or the level left; settings: time 2.0 day
[5] = biological target: T1, Homeobox protein Meis1 (Homo sapiens); test: Inhibition of MEIS1 (unknown origin) expressed in HEK293T cells co-expressing MEIS-Luc-pGL2 assessed as downregulation of Hif-Ialpha gene expression measuring mRNA level at 10 uM incubated for 2 days by RT-qPCR analysis; settings: time 2.0 day
[6] = biological target: T1, Homeobox protein Meis1 (Homo sapiens); test: Inhibition of MEIS1 (unknown origin) expressed in HEK293T cells co-expressing MEIS-Luc-pGL2 assessed as downregulation of p21 gene expression by measuring mRNA level at 10 uM incubated for 2 days by RT-qPCR analysis; design: scale not given: the % may be the effect or the level left; settings: time 2.0 day

| SMILES | Activity [1] [%] | Activity [2] [%] | Activity [4] [%] | Activity [5] | Activity [6] [%] | viability at 72 h, 10 µM [3] [%] |
| --- | --- | --- | --- | --- | --- | --- |
| Cc1cccc(NC(=O)c2ccc(OCC(=O)NCc3ccc(Cl)c(Cl)c3)cc2)c1C | 57 | 47 | – | – | – | – |
| O=C(COc1ccc(C(=O)Nc2ccccc2F)cc1)NCc1ccc(Cl)cc1 | 65 | 40 | – | – | – | – |
| COc1ccc(CNC(=O)COc2ccc(C(=O)Nc3cccc(C)c3C)cc2)cc1OC | 49 | 35 | 9.5 | Active | 21.7 | 83.9 |
| Cc1cccc(NC(=O)c2ccc(OCC(=O)NCc3ccc(Cl)cc3)cc2)c1C | 38 | 34 | 35.9 | Active | 47.4 | 73.5 |
| COc1ccc(CNC(=O)COc2ccc(C(=O)Nc3cccc(C)c3C)cc2)c(OC)c1 | 50 | 17 | – | – | – | – |
| COc1ccc(CNC(=O)COc2ccc(C(=O)Nc3ccccc3F)cc2)cc1 | 66 | 70 | – | – | – | – |
| COc1ccc(CNC(=O)COc2ccc(C(=O)Nc3cccc(C(F)(F)F)c3)cc2)cc1 | 1 | 1 | 15.1 | Active | 49.5 | 76 |
| CCc1ccccc1NC(=O)c1ccc(OCC(=O)NCc2ccc(OC)cc2)cc1 | 19 | 20 | 8.3 | Active | 8.5 | 78 |
| Cc1cccc(NC(=O)c2ccc(OCC(=O)NCc3ccccc3)cc2)c1C | 66 | 69 | 12 | – | 17.8 | – |
| O=C(COc1ccc(C(=O)Nc2ccc(Oc3ccc(Br)cc3)cc2)cc1)NCc1ccccc1Cl | 82 | 82 | – | – | – | – |
| Cc1cccc(NC(=O)c2ccc(OCC(=O)NCc3ccc4c(c3)OCO4)cc2)c1C | 52 | 54 | – | – | – | – |
| COc1ccc(CNC(=O)COc2ccc(C(=O)Nc3cccc(C)c3C)cc2)cc1 | 50.6 | 48 | 14.3 | Active | 15.7 | 86.3 |
| CCc1ccccc1NC(=O)c1ccc(OCC(=O)NCc2ccc(Cl)cc2)cc1 | 51 | 36 | 19.2 | Active | 139 | 31.3 |
| Cc1ccc(CNC(=O)COc2ccc(C(=O)Nc3cccc(C)c3C)cc2)cc1 | 48 | 51 | – | – | – | – |
| O=C(COc1ccc(C(=O)Nc2ccc(Oc3ccc(Br)cc3)cc2)cc1)NCc1ccc(Cl)cc1 | 72 | 42 | – | – | – | – |
| COc1ccc(NC(=O)c2ccc(OCC(=O)NCc3ccc(Cl)cc3)cc2)cc1OC | 56 | 45 | – | – | – | – |
| COc1ccc(CNC(=O)COc2ccc(C(=O)Nc3c(C)cccc3C)cc2)cc1 | 58 | 62 | – | – | – | – |
| Cc1cccc(NC(=O)c2ccc(OCC(=O)NCc3cccc(C(F)(F)F)c3)cc2)c1C | 57 | 106 | – | – | – | – |
| COc1ccc(CNC(=O)COc2ccc(C(=O)Nc3ccccc3)cc2)cc1 | 43 | 43 | – | – | – | – |
| COc1ccc(CNC(=O)COc2ccc(C(=O)Nc3ccc(OC)c(OC)c3)cc2)cc1 | 63 | 70 | – | – | – | – |
| O=C(COc1ccc(C(=O)Nc2cccc(C(F)(F)F)c2)cc1)NCc1ccc(Cl)cc1 | 46 | 44 | – | – | – | – |
| COc1ccc(CNC(=O)COc2ccc(C(=O)Nc3cc(C(F)(F)F)ccc3F)cc2)cc1 | 28 | 30 | 6.6 | Active | 5.2 | 105 |
| COc1ccc(CNC(=O)COc2ccc(C(=O)Nc3ccc(Oc4ccc(Br)cc4)cc3)cc2)cc1 | 37 | 45 | – | – | – | – |
| Cc1cccc(C)c1NC(=O)c1ccc(OCC(=O)NCc2ccc(Cl)cc2)cc1 | 77 | 55 | – | – | – | – |
| CCc1cccc(NC(=O)c2ccc(OCC(=O)NCc3ccc(OC)cc3)cc2)c1 | 51 | 51 | – | – | – | – |
| COc1ccc(CNC(=O)COc2ccc(C(=O)Nc3ccc(F)cc3)cc2)cc1 | 25 | 31 | 7.5 | Active | 20.3 | 86.2 |
| Cc1cccc(NC(=O)c2ccc(OCC(=O)NCc3ccc(F)cc3)cc2)c1C | 40 | 36 | 24.3 | Active | 25.6 | 90.4 |
| Cc1cccc(NC(=O)c2ccc(OCC(=O)NCc3ccc([N+](=O)[O-])cc3)cc2)c1C | 23 | 144 | – | – | – | – |
| Cc1cccc(NC(=O)c2ccc(OCC(=O)NCc3ccc(C(F)(F)F)cc3)cc2)c1C | 26 | 81 | – | – | – | – |
| O=C(COc1ccc(C(=O)Nc2ccc(F)cc2)cc1)NCc1ccc(Cl)cc1 | 69 | 43 | – | – | – | – |

More lines, main results first:

| Activity [1] [%] | Activity [2] [%] | Activity [4] [%] | Activity [5] | Activity [6] [%] | SMILES | viability at 72 h, 10 µM [3] [%] |
| --- | --- | --- | --- | --- | --- | --- |
| 52 | 61 | – | – | – | Cc1cccc(NC(=O)c2ccc(OCC(=O)NCc3ccc(Cl)cc3Cl)cc2)c1C | – |
| 80 | 82 | – | – | – | COc1ccc(NC(=O)c2ccc(OCC(=O)NCc3ccccc3Cl)cc2)cc1OC | – |
| 83 | 75 | – | – | – | O=C(COc1ccc(C(=O)Nc2ccccc2)cc1)NCc1ccc(Cl)cc1 | – |
| 51 | 50 | – | – | – | O=C(COc1ccc(C(=O)Nc2ccc(F)cc2)cc1)NCc1ccccc1Cl | – |
| 5 | 5 | 5.9 | Active | 12.7 | COc1ccc(CNC(=O)COc2ccc(C(=O)Nc3cccc(Cl)c3)cc2)cc1 | 90 |
| 88 | 96 | – | – | – | O=C(COc1ccc(C(=O)Nc2cccc(Cl)c2)cc1)NCc1ccccc1Cl | – |
| 63 | 66 | – | – | – | CCc1ccccc1NC(=O)c1ccc(OCC(=O)NCc2ccccc2Cl)cc1 | – |
| 53 | 58 | – | – | – | Cc1cccc(C)c1NC(=O)c1ccc(OCC(=O)NCc2ccccc2Cl)cc1 | – |
| 42 | 41 | – | – | – | CCc1cccc(NC(=O)c2ccc(OCC(=O)NCc3ccccc3Cl)cc2)c1 | – |
| 64 | 62 | – | – | – | O=C(COc1ccc(C(=O)Nc2ccccc2F)cc1)NCc1ccccc1Cl | – |
| 48 | 161 | – | – | – | Cc1cccc(NC(=O)c2ccc(OCC(=O)NCc3cccc(Cl)c3Cl)cc2)c1C | – |
| 43 | 34 | 13.7 | Active | 25.3 | Cc1cccc(NC(=O)c2ccc(OCC(=O)NCc3ccccc3Cl)cc2)c1C | 64.8 |
| 64 | 57 | – | – | – | O=C(COc1ccc(C(=O)Nc2cccc(C(F)(F)F)c2)cc1)NCc1ccccc1Cl | – |
| 51 | 32 | 4.5 | Active | 19.7 | O=C(COc1ccc(C(=O)Nc2cccc(Cl)c2)cc1)NCc1ccc(Cl)cc1 | 86.4 |
| 54 | 48 | – | – | – | O=C(COc1ccc(C(=O)Nc2ccccc2)cc1)NCc1ccccc1Cl | – |
| 69 | 49 | – | – | – | CCc1cccc(NC(=O)c2ccc(OCC(=O)NCc3ccc(Cl)cc3)cc2)c1 | – |
